US6635475B1, “Bacillus subtilis extracytoplasmic function σ factor” (Cornell Research Foundation, Inc., priority 1999, dated 2003)
Where a SMILES comes first, the peptide text is derived from it. Bridges are numbered along the chain shown (N, C = ends). [ ]: non-standard residue; d: D form. The star is where a group is joined. Ileψ(thiazoline)Cys = CC[C@H](C)[C@H](N)C1=N[C@H](C(=O)*)CS1; dOrn = NCCC[C@@H](N)C(=O)O

Test system: sigW mutant
Test: sigW mutant tested for increased sensitivity to chemical insults (zones of inhibition)
Assay type: cell-based, Bacillus subtilis
Details: sigW mutant strain tested for increased sensitivity to a variety of chemical insults
Excerpt: Identification of members of the σ^W regulon allows prediction of the phenotypes likely to be associated with a sigW mutation. A sigW mutant strain is not grossly defective in any of the well-characterized processes associated with post-exponential phase, including sporulation, competence, and protein secretion. It has been previously reported that sigW transcription is not induced by a temperature shift from 37 to 50 degrees C. (Huang et al., 1998) and the same is true for the four tested members of the σ^W regulon (ydbS, yeaA, yxjI, ysdB). Since several members of the σ^W regulon encode enzymes with a predicted detoxification function (FIG. 3), a sigW mutant was tested for increased sensitivity to a variety of chemical insults.

Row | Compound | differences in the zones of inhibition
1 | O[C@H](CS)[C@H](O)CS (racemic) [dithiothreitol] | no differences
2 | [Fe+3] [Fe^3+] | no differences
3 | CCCCCCCCCCCCOS(=O)(=O)[O-].[Na+] [sodium dodecyl sulfate] | no differences
4 | [Cl-].[Na+] [NaCl] | no differences
5 | C[n+]1ccc(-c2cc[n+](C)cc2)cc1 [methyl viologen] | no differences
6 | neomycin | no differences
7 | Cl [HCI] | no differences
8 | CC1(C)S[C@@H]2[C@H](NC(=O)[C@H](N)c3ccccc3)C(=O)N2[C@H]1C(=O)O [ampicillin] | no differences
9 | CC[C@H](C)[C@H](N)C1=N[C@H](C(=O)N[C@@H](CC(C)C)C(=O)N[C@H](CCC(=O)O)C(=O)N[C@H](C(=O)N[C@H]2CCCCNC(=O)[C@H](CC(N)=O)NC(=O)[C@@H](CC(=O)O)NC(=O)[C@H](Cc3cnc[nH]3)NC(=O)[C@@H](Cc3ccccc3)NC(=O)[C@H]([C@@H](C)CC)NC(=O)[C@@H](CCCN)NC2=O)[C@@H](C)CC)CS1 [bacitracin] ({Ileψ(thiazoline)Cys}-L[dE]IK[dOrn]I[dF]H[dD]N; lactam 4-C) | no differences
10 | OO [hydrogen peroxide] | no differences
11 | lysozyme | no differences
12 | O=C(N[C@H](CO)[C@H](O)c1ccc([N+](=O)[O-])cc1)C(Cl)Cl [chloramphenicol] | no differences
13 | OCCS [2-mercaptoethanol] | no differences
14 | gentamicin sulfate | no differences
15 | nisin | no differences
16 | polymyxins | no differences
17 | [Mn+2] [Mn^2+] | no differences
18 | O=C(O)CN(CCN(CC(=O)O)CC(=O)O)CC(=O)O [EDTA] | no differences
19 | [Na+].[OH-] [NAOH] | no differences
20 | CN[C@@H]1[C@H](O)[C@H](NC)[C@H]2O[C@@]3(O)C(=O)C[C@@H](C)O[C@H]3O[C@@H]2[C@H]1O [spectinomycin] | no differences
